Measurements: US12723063B2, “GIPR-agonist compounds” (Eli Lilly and Company, priority 2019, dated 2026)
*1 amine or outer side, *2 acyl side, *3 side chain or, on linkers, in order; H or OH if unused. Where a SMILES comes first, the peptide text is derived from it. Side-chain parts run from the residue outwards. [ ]: non-standard residue; d: D form. The star is where a group is joined. C20 diacid = O=C(O)CCCCCCCCCCCCCCCCCCC(=O)*; C18 diacid = O=C(O)CCCCCCCCCCCCCCCCC(=O)*; αMePhe(2-F) = C[C@](N)(Cc1ccccc1F)C(=O)O; γGlu = O=C(O)[C@H](CCC(=O)[*:2])N[*:1]; αMeL = CC(C)C[C@](C)(N)C(=O)O; AEEA = NCCOCCOCC(=O)O; Aib = CC(C)(N)C(=O)O

How the values were obtained:
[1] = target: T1, human glucose-dependent insulinotropic peptide receptor (GIPR) (Homo sapiens, UniProt P48546); test: cAMP functional assay (HTRF) in HEK293 cells in presence of 0.1% casein; format: cell-based; settings: HEK293 cells expressing human GIPR, geometric mean, read-out: hGIPR cAMP Rel EC50 nM (SEM, n)
T1 construct: expressed in transfected cells; host or cells: HEK293
T1 sequence (P48546 22-466): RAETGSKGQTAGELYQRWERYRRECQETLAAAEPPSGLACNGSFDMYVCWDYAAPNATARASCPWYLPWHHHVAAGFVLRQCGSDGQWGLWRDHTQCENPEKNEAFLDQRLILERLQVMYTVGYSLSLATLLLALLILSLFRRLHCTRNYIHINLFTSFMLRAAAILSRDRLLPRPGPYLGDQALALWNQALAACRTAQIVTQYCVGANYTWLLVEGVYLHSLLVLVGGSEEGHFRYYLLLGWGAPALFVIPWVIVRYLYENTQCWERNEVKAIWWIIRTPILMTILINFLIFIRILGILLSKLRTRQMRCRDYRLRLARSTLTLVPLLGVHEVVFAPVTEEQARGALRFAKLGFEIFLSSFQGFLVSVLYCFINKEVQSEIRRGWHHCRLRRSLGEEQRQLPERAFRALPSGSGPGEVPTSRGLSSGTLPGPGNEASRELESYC

[2] = target: T2, human glucagon receptor (GcgR) (Homo sapiens, UniProt P47871); test: as above; format: cell-based; settings: HEK293 cells expressing human GcgR, geometric mean, read-out: hGcgR cAMP Rel EC50 nM (SEM, n)
T2 construct: expressed in transfected cells; host or cells: HEK293
T2 sequence (P47871 26-477): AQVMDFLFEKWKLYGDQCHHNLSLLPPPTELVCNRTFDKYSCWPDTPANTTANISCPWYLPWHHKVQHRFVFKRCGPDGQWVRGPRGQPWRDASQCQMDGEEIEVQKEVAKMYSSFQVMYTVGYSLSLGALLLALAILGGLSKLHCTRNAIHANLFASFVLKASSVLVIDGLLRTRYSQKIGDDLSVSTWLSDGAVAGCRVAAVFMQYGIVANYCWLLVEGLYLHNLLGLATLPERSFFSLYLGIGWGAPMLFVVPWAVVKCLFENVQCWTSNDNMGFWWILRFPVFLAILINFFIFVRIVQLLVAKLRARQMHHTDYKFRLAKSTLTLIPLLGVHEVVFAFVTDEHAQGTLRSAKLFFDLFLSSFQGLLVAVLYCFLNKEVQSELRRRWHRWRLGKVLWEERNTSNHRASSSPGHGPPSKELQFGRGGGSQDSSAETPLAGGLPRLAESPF

SMILES	EC50 [1] [nM]	EC50 [2] [nM]
CC[C@H](C)[C@H](NC(=O)[C@H](CO)NC(=O)[C@H](Cc1ccc(O)cc1)NC(=O)[C@H](CC(=O)O)NC(=O)[C@H](CO)NC(=O)[C@@H](NC(=O)[C@H](CC(C)C)NC(=O)[C@@H](NC(=O)CNC(=O)[C@H](CCC(=O)O)NC(=O)[C@@H](C)NC(=O)[C@@H](N)Cc1ccc(O)cc1)[C@@H](C)O)[C@@H](C)CC)C(=O)N[C@@H](CC(C)C)C(=O)N[C@@H](CC(C)C)C(=O)N[C@@H](CC(=O)O)C(=O)N[C@@H](CCCCN)C(=O)N[C@@H](CCCCNC(=O)COCCOCCNC(=O)COCCOCCNC(=O)CC[C@H](NC(=O)CCCCCCCCCCCCCCCCC(=O)O)C(=O)O)C(=O)N[C@@H](C)C(=O)N[C@@H](CCC(N)=O)C(=O)NC(C)(C)C(=O)N[C@@H](CC(=O)O)C(=O)N[C@@H](Cc1ccccc1)C(=O)N[C@H](C(=O)N[C@@H](CC(N)=O)C(=O)N[C@@H](Cc1c[nH]c2ccccc12)C(=O)N[C@@H](CC(C)C)C(=O)N[C@@H](CC(C)C)C(=O)N[C@@H](C)C(=O)N[C@@H](CCC(N)=O)C(=O)NCC(=O)N1CCC[C@H]1C(=O)N[C@@H](CO)C(=O)N[C@@H](CO)C(=O)NCC(=O)N[C@@H](C)C(=O)N1CCC[C@H]1C(=O)N1CCC[C@H]1C(=O)N1CCC[C@H]1C(=O)N[C@@H](CO)C(N)=O)C(C)C [Example 32] (H-Y[dA]EGTLISDYSILLDKK([AEEA-AEEA-γGlu-C18 diacid])AQ[Aib]DFVNWLLAQGPSSGAPPPS-NH2)	0.00469	> 5000
CC[C@H](C)[C@H](NC(=O)[C@H](CO)NC(=O)[C@H](Cc1ccc(O)cc1)NC(=O)[C@H](CC(=O)O)NC(=O)[C@H](CO)NC(=O)[C@@H](NC(=O)[C@](C)(Cc1ccccc1F)NC(=O)[C@@H](NC(=O)CNC(=O)[C@H](CCC(=O)O)NC(=O)[C@H](C)NC(=O)[C@@H](Cc1ccc(O)cc1)NC(C)=O)[C@@H](C)O)[C@@H](C)CC)C(=O)N[C@@H](C)C(=O)N[C@@H](CC(C)C)C(=O)N[C@@H](CC(=O)O)C(=O)N[C@@H](CCCCN)C(=O)N[C@@H](CCCCNC(=O)COCCOCCNC(=O)COCCOCCNC(=O)CC[C@H](NC(=O)CCCCCCCCCCCCCCCCCCC(=O)O)C(=O)O)C(=O)N[C@@H](Cc1c[nH]cn1)C(=O)N[C@@H](CCC(N)=O)C(=O)NC(C)(C)C(=O)N[C@@H](CCC(=O)O)C(=O)N[C@@H](Cc1ccccc1)C(=O)N[C@H](C(=O)N[C@@H](CC(N)=O)C(=O)N[C@@H](Cc1ccc(O)cc1)C(=O)N[C@@H](CC(C)C)C(=O)N[C@@H](CC(C)C)C(=O)N[C@@H](CCC(=O)O)C(=O)NCC(=O)NCC(=O)N1CCC[C@H]1C(=O)N[C@@H](CO)C(=O)N[C@@H](CO)C(=O)NCC(=O)N[C@@H](C)C(=O)N1CCC[C@H]1C(=O)N1CCC[C@H]1C(=O)N1CCC[C@H]1C(=O)N[C@@H](CO)C(N)=O)C(C)C [Example 33] (Ac-[dY]AEGT[αMePhe(2-F)]ISDYSIALDKK([AEEA-AEEA-γGlu-C20 diacid])HQ[Aib]EFVNYLLEGGPSSGAPPPS-NH2)	0.0551	> 5000
CC[C@H](C)[C@H](NC(=O)[C@H](CO)NC(=O)[C@H](Cc1ccc(O)cc1)NC(=O)[C@H](CC(=O)O)NC(=O)[C@H](CO)NC(=O)[C@@H](NC(=O)[C@](C)(Cc1ccccc1F)NC(=O)[C@@H](NC(=O)CNC(=O)[C@H](CCC(=O)O)NC(=O)C(C)(C)NC(=O)[C@@H](N)Cc1ccc(O)cc1)[C@@H](C)O)[C@@H](C)CC)C(=O)N[C@@H](C)C(=O)N[C@@H](CC(C)C)C(=O)N[C@@H](CC(=O)O)C(=O)N[C@@H](CCCCN)C(=O)N[C@@H](CCCCNC(=O)COCCOCCNC(=O)COCCOCCNC(=O)CC[C@H](NC(=O)CCCCCCCCCCCCCCCCCCC(=O)O)C(=O)O)C(=O)N[C@@H](Cc1c[nH]cn1)C(=O)N[C@@H](CCC(N)=O)C(=O)NC(C)(C)C(=O)N[C@@H](CCC(=O)O)C(=O)N[C@@H](Cc1ccccc1)C(=O)N[C@H](C(=O)N[C@@H](CC(N)=O)C(=O)N[C@@H](Cc1ccc(O)cc1)C(=O)N[C@@H](CC(C)C)C(=O)N[C@@H](CC(C)C)C(=O)N[C@@H](C)C(=O)N[C@H](C(=O)NCC(=O)N1CCC[C@H]1C(=O)N[C@@H](CO)C(=O)N[C@@H](CO)C(=O)NCC(=O)N[C@@H](C)C(=O)N1CCC[C@H]1C(=O)N1CCC[C@H]1C(=O)N1CCC[C@H]1C(=O)N[C@@H](CO)C(N)=O)[C@@H](C)O)C(C)C [Example 34] (H-Y[Aib]EGT[αMePhe(2-F)]ISDYSIALDKK([AEEA-AEEA-γGlu-C20 diacid])HQ[Aib]EFVNYLLATGPSSGAPPPS-NH2)	0.0177	913
CC[C@H](C)[C@H](NC(=O)[C@H](CO)NC(=O)[C@H](Cc1ccc(O)cc1)NC(=O)[C@H](CC(=O)O)NC(=O)[C@H](CO)NC(=O)[C@@H](NC(=O)[C@](C)(CC(C)C)NC(=O)[C@@H](NC(=O)CNC(=O)[C@H](CCC(=O)O)NC(=O)C(C)(C)NC(=O)[C@@H](N)Cc1ccc(O)cc1)[C@@H](C)O)[C@@H](C)CC)C(=O)N[C@@H](C)C(=O)N[C@@H](CC(C)C)C(=O)N[C@@H](CC(=O)O)C(=O)N[C@@H](CCCCN)C(=O)N[C@@H](CCCCNC(=O)COCCOCCNC(=O)COCCOCCNC(=O)CC[C@H](NC(=O)CCCCCCCCCCCCCCCCCCC(=O)O)C(=O)O)C(=O)N[C@@H](Cc1c[nH]cn1)C(=O)N[C@@H](CCC(N)=O)C(=O)NC(C)(C)C(=O)N[C@@H](CCC(=O)O)C(=O)N[C@@H](Cc1ccccc1)C(=O)N[C@H](C(=O)N[C@@H](CC(N)=O)C(=O)N[C@@H](Cc1ccc(O)cc1)C(=O)N[C@@H](CC(C)C)C(=O)N[C@@H](CC(C)C)C(=O)N[C@@H](C)C(=O)N[C@H](C(=O)NCC(=O)N1CCC[C@H]1C(=O)N[C@@H](CO)C(=O)N[C@@H](CO)C(=O)NCC(=O)N[C@@H](C)C(=O)N1CCC[C@H]1C(=O)N1CCC[C@H]1C(=O)N1CCC[C@H]1C(=O)N[C@@H](CO)C(N)=O)[C@@H](C)O)C(C)C [Example 35] (H-Y[Aib]EGT[αMeL]ISDYSIALDKK([AEEA-AEEA-γGlu-C20 diacid])HQ[Aib]EFVNYLLATGPSSGAPPPS-NH2)	0.0125	> 5000
CC[C@H](C)[C@H](NC(=O)[C@H](CO)NC(=O)[C@H](Cc1ccc(O)cc1)NC(=O)[C@H](CC(=O)O)NC(=O)[C@H](CO)NC(=O)[C@@H](NC(=O)[C@](C)(Cc1ccccc1F)NC(=O)[C@@H](NC(=O)CNC(=O)[C@H](CCC(=O)O)NC(=O)C(C)(C)NC(=O)[C@@H](N)Cc1ccc(O)cc1)[C@@H](C)O)[C@@H](C)CC)C(=O)N[C@@H](C)C(=O)N[C@@H](CC(C)C)C(=O)N[C@@H](CC(=O)O)C(=O)N[C@@H](CCCCN)C(=O)N[C@@H](CCCCNC(=O)COCCOCCNC(=O)COCCOCCNC(=O)CC[C@H](NC(=O)CCCCCCCCCCCCCCCCCCC(=O)O)C(=O)O)C(=O)N[C@@H](Cc1c[nH]cn1)C(=O)N[C@@H](CCC(N)=O)C(=O)NC(C)(C)C(=O)N[C@@H](CC(=O)O)C(=O)N[C@@H](Cc1ccccc1)C(=O)N[C@H](C(=O)N[C@@H](CCC(=O)O)C(=O)N[C@@H](Cc1ccc(O)cc1)C(=O)N[C@@H](CC(C)C)C(=O)N[C@@H](CC(C)C)C(=O)N[C@@H](CCC(=O)O)C(=O)N[C@H](C(=O)NCC(=O)N1CCC[C@H]1C(=O)N[C@@H](CO)C(=O)N[C@@H](CO)C(=O)NCC(=O)N[C@@H](C)C(=O)N1CCC[C@H]1C(=O)N1CCC[C@H]1C(=O)N1CCC[C@H]1C(=O)N[C@@H](CO)C(N)=O)[C@@H](C)O)C(C)C [Example 36] (H-Y[Aib]EGT[αMePhe(2-F)]ISDYSIALDKK([AEEA-AEEA-γGlu-C20 diacid])HQ[Aib]DFVEYLLETGPSSGAPPPS-NH2)	0.0543	> 5000
CC[C@H](C)[C@H](NC(=O)[C@H](CO)NC(=O)[C@H](Cc1ccc(O)cc1)NC(=O)[C@H](CC(=O)O)NC(=O)[C@H](CO)NC(=O)[C@@H](NC(=O)[C@](C)(Cc1ccccc1F)NC(=O)[C@@H](NC(=O)CNC(=O)[C@H](CCC(=O)O)NC(=O)C(C)(C)NC(=O)[C@@H](N)Cc1ccc(O)cc1)[C@@H](C)O)[C@@H](C)CC)C(=O)N[C@@H](C)C(=O)N[C@@H](CC(C)C)C(=O)N[C@@H](CC(=O)O)C(=O)N[C@@H](CCCCN)C(=O)N[C@@H](CCCCNC(=O)COCCOCCNC(=O)COCCOCCNC(=O)CC[C@H](NC(=O)CCCCCCCCCCCCCCCCCCC(=O)O)C(=O)O)C(=O)N[C@@H](Cc1c[nH]cn1)C(=O)N[C@@H](CCC(N)=O)C(=O)NC(C)(C)C(=O)N[C@@H](CC(=O)O)C(=O)N[C@@H](Cc1ccccc1)C(=O)N[C@H](C(=O)N[C@@H](CCC(=O)O)C(=O)N[C@@H](Cc1ccc(O)cc1)C(=O)N[C@@H](CC(C)C)C(=O)N[C@@H](CC(C)C)C(=O)N[C@@H](CCC(=O)O)C(=O)NCC(=O)NCC(=O)N1CCC[C@H]1C(=O)N[C@@H](CO)C(=O)N[C@@H](CO)C(=O)NCC(=O)N[C@@H](C)C(=O)N1CCC[C@H]1C(=O)N1CCC[C@H]1C(=O)N1CCC[C@H]1C(=O)N[C@@H](CO)C(N)=O)C(C)C [Example 37] (H-Y[Aib]EGT[αMePhe(2-F)]ISDYSIALDKK([AEEA-AEEA-γGlu-C20 diacid])HQ[Aib]DFVEYLLEGGPSSGAPPPS-NH2)	0.036	> 5000
